Consider twelve compounds from PMC6122390, “Synthesis of 1,4-imino-L-lyxitols modified at C-5 and their evaluation as inhibitors of GH38 α-mannosidases” (Beilstein Journal of Organic Chemistry, 2018).

pIC50: −log10 of the molar value. Read-outs that look alike come from different tables or passages of the source.

Series [1] concerns the target Drosophila melanogaster Golgi α-mannosidase II (GMIIb) (Drosophila melanogaster, UniProt Q9VF33). Description: Inhibition of Golgi α-mannosidase II (GMIIb), pNP-Man substrate. Format: biochemical. The following applies: for IC50: pH 6.0, 0.5 mM CoCl2, 37 °C, read-out: GMIIb [IC50 (M)]; for fold decrease in inhibition activity against GMIIb in comparison with 1a: relative to 1a. As to the method: (§1) The purification and characterization of recombinant Drosophila melanogaster Golgi α-mannosidase II [9] (GMIIb) and lysosomal α-mannosidase II (LManII) was carried out as already described. Activity of prepared mannosidases was measured using p-nitrophenyl-α-D-mannopyranoside (pNP-Man; Sigma-Aldrich) as a substrate at 2 mM concentration prepared from a 100 mM stock in dimethyl sulfoxide by dilution in 50 mM acetate buffer at optimal pH for the enzymes (Jack bean α-mannosidase (JBMan) at pH 5.0, Golgi α-mannosidase (GMIIb) at pH 6.0 and lysosomal α-mannosidase (LManII) at pH 5.2) and 0.5 μL of the enzyme (0.05 µg of protein for Jack bean α-mannosidase), in a total volume of 50 μL for 1–2 h at 37 °C. GMIIb was assayed in the presence of 0.5 mM CoCl2. Pyrrolidines 2–5 used in biochemical evaluation were lyophilized before use. The inhibitors 2–5 were pre-incubated with the enzyme in the buffer for 5 min at rt and the reaction was started by addition of the substrate. The reactions were terminated with two volumes (0.1 mL) of 0.5 M sodium carbonate and the production of p-nitrophenol was measured at 405 nm using a multimode reader Mithras LB943 (Berthold Technologies). The IC50 value was determined with 2 mM pNP-Man. All biochemical assays were performed in 96 well microplates in triplicate.

Series [2] deals with lysosomal α-mannosidase II (LManII) (Drosophila melanogaster, UniProt Q9VKV1). Description: Inhibition of lysosomal α-mannosidase II (LManII), pNP-Man substrate. Format: biochemical. The following applies: n.i. = no inhibition, 2 mM pNP-Man, pH 5.2. As to the method:
as §1

Series [3] addresses T1, Jack bean α-mannosidase (JBMan) (Canavalia ensiformis, UniProt C0HJB3).
T1 construct: purchased
T1 sequence (C0HJB3 1-981): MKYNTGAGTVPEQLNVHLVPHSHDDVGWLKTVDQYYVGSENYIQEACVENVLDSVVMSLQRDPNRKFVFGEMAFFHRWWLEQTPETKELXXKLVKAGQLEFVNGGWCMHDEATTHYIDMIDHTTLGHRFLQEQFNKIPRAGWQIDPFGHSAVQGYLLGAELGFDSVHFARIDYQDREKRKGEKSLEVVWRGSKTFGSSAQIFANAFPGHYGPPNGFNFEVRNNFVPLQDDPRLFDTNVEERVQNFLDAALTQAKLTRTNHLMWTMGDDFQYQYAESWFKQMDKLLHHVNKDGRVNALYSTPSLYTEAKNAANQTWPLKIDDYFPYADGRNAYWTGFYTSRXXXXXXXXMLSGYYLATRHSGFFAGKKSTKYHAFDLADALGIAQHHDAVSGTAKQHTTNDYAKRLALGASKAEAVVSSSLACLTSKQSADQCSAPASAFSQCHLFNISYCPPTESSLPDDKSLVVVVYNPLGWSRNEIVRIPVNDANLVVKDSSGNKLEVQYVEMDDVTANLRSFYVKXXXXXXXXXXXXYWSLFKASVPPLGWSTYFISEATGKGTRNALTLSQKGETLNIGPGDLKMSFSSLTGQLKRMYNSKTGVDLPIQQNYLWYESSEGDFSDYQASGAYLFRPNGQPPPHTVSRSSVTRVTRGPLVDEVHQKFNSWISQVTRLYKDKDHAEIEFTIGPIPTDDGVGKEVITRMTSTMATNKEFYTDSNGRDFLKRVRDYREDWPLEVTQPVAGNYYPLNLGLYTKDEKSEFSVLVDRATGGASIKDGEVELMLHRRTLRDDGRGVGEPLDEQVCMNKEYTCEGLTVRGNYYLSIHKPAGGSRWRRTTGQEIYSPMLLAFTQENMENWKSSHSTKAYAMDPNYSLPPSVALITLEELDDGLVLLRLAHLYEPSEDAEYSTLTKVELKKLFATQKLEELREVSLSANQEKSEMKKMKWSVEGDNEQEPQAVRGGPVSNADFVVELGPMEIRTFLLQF
Description: Inhibition of jack bean α-mannosidase (JBMan), pNP-Man substrate. Format: biochemical. The following applies: n.i. = no inhibition, 2 mM pNP-Man; for JBMan (%) inhibition in the presence of 2 mM inhibitor concentration: pH 5.0; for inhibition at 2000 µM: pH 5, 2 mM inhibitor, read-out: JBMan (%) inhibition in the presence of 2 mM inhibitor concentration. The procedure: as §1

One may read the IC50 as the concentration at which inhibition is half-maximal. As usually defined, the melting point is the temperature of the solid-liquid transition. As usually defined, the pIC50 is the IC50 on a negative log10 scale, so that one unit is a factor of ten.

Drosophila melanogaster Golgi α-mannosidase II (GMIIb), sequence (Q9VF33 entry or part of it): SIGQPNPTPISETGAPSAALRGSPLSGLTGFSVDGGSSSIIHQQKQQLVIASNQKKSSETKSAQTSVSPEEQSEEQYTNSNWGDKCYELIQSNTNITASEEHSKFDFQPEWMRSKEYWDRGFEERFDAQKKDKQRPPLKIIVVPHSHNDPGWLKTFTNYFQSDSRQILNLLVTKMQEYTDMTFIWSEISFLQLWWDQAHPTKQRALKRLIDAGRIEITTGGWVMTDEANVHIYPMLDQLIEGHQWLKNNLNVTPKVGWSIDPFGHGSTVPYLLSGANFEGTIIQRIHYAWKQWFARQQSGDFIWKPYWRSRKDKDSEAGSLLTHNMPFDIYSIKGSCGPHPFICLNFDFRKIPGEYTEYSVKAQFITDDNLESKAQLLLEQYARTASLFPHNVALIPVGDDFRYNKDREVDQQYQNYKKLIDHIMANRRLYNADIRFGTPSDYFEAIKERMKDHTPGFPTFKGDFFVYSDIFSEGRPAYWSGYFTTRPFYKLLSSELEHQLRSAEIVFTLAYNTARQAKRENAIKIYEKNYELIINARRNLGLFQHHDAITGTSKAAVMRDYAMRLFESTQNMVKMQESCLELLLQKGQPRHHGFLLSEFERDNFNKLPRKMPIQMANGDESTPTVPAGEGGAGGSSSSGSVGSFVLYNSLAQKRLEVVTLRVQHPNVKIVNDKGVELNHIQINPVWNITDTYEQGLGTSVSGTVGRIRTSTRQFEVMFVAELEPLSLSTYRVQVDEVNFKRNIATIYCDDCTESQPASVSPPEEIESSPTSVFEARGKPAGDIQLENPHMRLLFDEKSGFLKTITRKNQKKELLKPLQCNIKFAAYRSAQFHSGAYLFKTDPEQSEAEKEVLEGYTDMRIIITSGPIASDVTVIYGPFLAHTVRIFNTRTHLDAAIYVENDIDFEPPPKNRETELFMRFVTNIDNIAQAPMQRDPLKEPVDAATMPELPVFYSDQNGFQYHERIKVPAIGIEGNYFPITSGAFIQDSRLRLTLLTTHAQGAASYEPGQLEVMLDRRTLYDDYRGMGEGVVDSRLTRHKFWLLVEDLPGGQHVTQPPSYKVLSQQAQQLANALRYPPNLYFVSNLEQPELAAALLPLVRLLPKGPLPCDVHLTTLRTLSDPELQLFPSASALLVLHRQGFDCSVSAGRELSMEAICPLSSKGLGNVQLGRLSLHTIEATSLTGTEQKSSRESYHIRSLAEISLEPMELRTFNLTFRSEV
lysosomal α-mannosidase II (LManII), sequence (Q9VKV1 entry or part of it): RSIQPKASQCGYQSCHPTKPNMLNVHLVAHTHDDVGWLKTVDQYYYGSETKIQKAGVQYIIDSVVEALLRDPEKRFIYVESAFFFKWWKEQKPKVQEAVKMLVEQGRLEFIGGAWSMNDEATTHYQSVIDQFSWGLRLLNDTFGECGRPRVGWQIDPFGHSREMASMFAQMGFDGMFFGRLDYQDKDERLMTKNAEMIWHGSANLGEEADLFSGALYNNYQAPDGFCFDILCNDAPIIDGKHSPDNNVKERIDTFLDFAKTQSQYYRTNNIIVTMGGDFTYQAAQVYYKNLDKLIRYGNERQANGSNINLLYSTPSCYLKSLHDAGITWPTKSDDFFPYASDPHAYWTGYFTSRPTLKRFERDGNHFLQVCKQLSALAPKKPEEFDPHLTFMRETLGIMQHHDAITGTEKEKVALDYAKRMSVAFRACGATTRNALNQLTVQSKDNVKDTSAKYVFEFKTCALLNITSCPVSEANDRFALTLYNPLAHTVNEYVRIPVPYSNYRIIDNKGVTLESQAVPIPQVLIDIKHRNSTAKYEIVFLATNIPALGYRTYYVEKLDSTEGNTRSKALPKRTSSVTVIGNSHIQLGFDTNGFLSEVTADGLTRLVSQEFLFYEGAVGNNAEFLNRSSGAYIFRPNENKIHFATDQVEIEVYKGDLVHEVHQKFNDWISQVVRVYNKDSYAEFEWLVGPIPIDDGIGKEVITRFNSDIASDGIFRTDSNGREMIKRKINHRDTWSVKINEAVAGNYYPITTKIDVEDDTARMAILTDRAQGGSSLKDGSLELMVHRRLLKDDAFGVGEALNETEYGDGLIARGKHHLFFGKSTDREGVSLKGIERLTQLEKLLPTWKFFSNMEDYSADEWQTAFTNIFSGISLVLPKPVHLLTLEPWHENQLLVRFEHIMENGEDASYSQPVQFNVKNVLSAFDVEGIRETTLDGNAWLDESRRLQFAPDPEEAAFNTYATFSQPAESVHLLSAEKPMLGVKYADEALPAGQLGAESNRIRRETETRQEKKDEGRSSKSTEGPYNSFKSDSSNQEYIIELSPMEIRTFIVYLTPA

Regarding `C[C@H]1[C@@H](O)[C@@H](O)CN1Cc1ccccc1` [Compound 2a], in series [1] (2 mM pNP-Man), the IC50 worked out at 0.00036 M. In series [2], the “LmanII inhibition in the presence of 2 mM inhibitor concentration” value (“LmanII inhibition in the presence” for short) is listed as “n.i.^a”. The “JBMan (%) inhibition in the presence of 2 mM inhibitor concentration” value (“JBMan (%) inhibition in the presence” for short) in series [3] is reported as “n.i”.

For the compound `C[C@H]1[C@@H](O)[C@@H](O)CN1Cc1ccc(Br)cc1` [Compound 2b], in series [1] (2 mM pNP-Man), the IC50 turned out to be 0.00035 M. Also, the “LmanII inhibition in the presence” value in series [2] is reported as “n.i.^a”. In addition, the “JBMan (%) inhibition in the presence” value in series [3] was “n.i”.

On to `C[C@H]1[C@@H](O)[C@@H](O)CN1Cc1ccc(I)cc1` [Compound 2c], for which, in series [1] (2 mM pNP-Man), the IC50 was found to be 0.0003 M. Besides, in series [2], the “LmanII inhibition in the presence” value is “n.i.^a”. The “JBMan (%) inhibition in the presence” value in series [3] is listed as “n.i”.

Take `CC[C@H]1[C@@H](O)[C@@H](O)CN1Cc1ccccc1` [Compound 3a]: the melting point was 76 to 78 °C. In addition, the IC50 in series [1] (2 mM pNP-Man) amounted to 0.00075 M. Also, the “LmanII inhibition in the presence” value in series [2] is recorded as “n.i.^a”. Besides, the inhibition at 2000 µM in series [3] turned out to be 3%.

With `CC[C@H]1[C@@H](O)[C@@H](O)CN1Cc1ccc(Br)cc1` [Compound 3b], in series [1] (2 mM pNP-Man), the IC50 amounted to 0.00095 M. The “LmanII inhibition in the presence” value in series [2] is listed as “n.i.^a”. In addition, in series [3], the inhibition at 2000 µM is 14%.

For `CC[C@H]1[C@@H](O)[C@@H](O)CN1Cc1ccc(I)cc1` [Compound 3c], the IC50 in series [1] (2 mM pNP-Man) is 0.00045 M. In addition, in series [1] (2 mM pNP-Man, pH 6.0, read-out: GMIIb IC50), the pIC50 is above 3.30. In series [2], the “LmanII inhibition in the presence” value is recorded as “n.i.^a”. Moreover, the inhibition at 2000 µM in series [3] worked out at 39%.

Regarding `C[C@@H](O)[C@H]1[C@@H](O)[C@@H](O)CN1Cc1ccccc1` [Compound 4a], the IC50 in series [1] (2 mM pNP-Man) turned out to be 0.0018 M. Further, the “fold decrease in inhibition activity against GMIIb in comparison with 1a” value in series [1] is recorded as “about 25 fold”. For the same compound, the “LmanII inhibition in the presence” value in series [2] is reported as “n.i.^a”. The inhibition at 2000 µM in series [3] was 2%.

In the case of `C[C@@H](O)[C@H]1[C@@H](O)[C@@H](O)CN1Cc1ccc(Br)cc1` [Compound 4b], the IC50 in series [1] (2 mM pNP-Man) was determined as 0.0016 M. For the same compound, the “LmanII inhibition in the presence” value in series [2] is recorded as “n.i.^a”. Further, the inhibition at 2000 µM in series [3] is 4%.

For the compound `C[C@@H](O)[C@H]1[C@@H](O)[C@@H](O)CN1Cc1ccc(I)cc1` [Compound 4c], in series [1] (2 mM pNP-Man), the IC50 came to 0.0019 M. In series [2], the “LmanII inhibition in the presence” value was “n.i.^a”. Further, in series [3], the inhibition at 2000 µM worked out at 17%.

With `C[C@H](O)[C@H]1[C@@H](O)[C@@H](O)CN1Cc1ccccc1` [Compound 5a, (2S,3R,4S)-1-Benzyl-2-((S)-1-hydroxyethyl)pyrrolidine-3,4-diol], the IC50 in series [1] (2 mM pNP-Man) was found to be 0.00195 M. Besides, the “fold decrease in inhibition activity against GMIIb in comparison with 1a” value in series [1] is listed as “about 25 fold”. Moreover, the “LmanII inhibition in the presence” value in series [2] is “n.i.^a”. For the same compound, the inhibition at 2000 µM in series [3] stood at 21%.

`C[C@H](O)[C@H]1[C@@H](O)[C@@H](O)CN1Cc1ccc(Br)cc1` [Compound 5b, (2S,3R,4S)-1-(4-Bromobenzyl)-2-((S)-1-hydroxyethyl)pyrrolidine-3,4-diol]: the IC50 in series [1] (2 mM pNP-Man) was determined as 0.00265 M. Further, in series [2], the “LmanII inhibition in the presence” value is given as “n.i.^a”. Moreover, the inhibition at 2000 µM in series [3] came to 40%.

With `C[C@H](O)[C@H]1[C@@H](O)[C@@H](O)CN1Cc1ccc(I)cc1` [Compound 5c, (2S,3R,4S)-1-(4-Iodobenzyl)-2-((S)-1-hydroxyethyl)pyrrolidine-3,4-diol], the IC50 in series [1] (2 mM pNP-Man) came out at 0.00295 M. Besides, the “LmanII inhibition in the presence” value in series [2] is reported as “n.i.^a”. Also, in series [3], the “JBMan (%) inhibition in the presence” value was determined as 38% and the inhibition at 2000 µM turned out to be 40%.
